In patent publication US11229623B2 (GlaxoSmithKline Intellectual Property (No.2) Limited, priority 2016, dated 2022) one finds IC50 data, which are given here for 28 compounds.

In the assay the target is T1, human TRPV4 (Homo sapiens, UniProt Q9HBA0).
T1 construct: expressed in transfected cells; host or cells: BHK/AC9 cells transduced with BacMam virus
T1 sequence (Q9HBA0 whole entry): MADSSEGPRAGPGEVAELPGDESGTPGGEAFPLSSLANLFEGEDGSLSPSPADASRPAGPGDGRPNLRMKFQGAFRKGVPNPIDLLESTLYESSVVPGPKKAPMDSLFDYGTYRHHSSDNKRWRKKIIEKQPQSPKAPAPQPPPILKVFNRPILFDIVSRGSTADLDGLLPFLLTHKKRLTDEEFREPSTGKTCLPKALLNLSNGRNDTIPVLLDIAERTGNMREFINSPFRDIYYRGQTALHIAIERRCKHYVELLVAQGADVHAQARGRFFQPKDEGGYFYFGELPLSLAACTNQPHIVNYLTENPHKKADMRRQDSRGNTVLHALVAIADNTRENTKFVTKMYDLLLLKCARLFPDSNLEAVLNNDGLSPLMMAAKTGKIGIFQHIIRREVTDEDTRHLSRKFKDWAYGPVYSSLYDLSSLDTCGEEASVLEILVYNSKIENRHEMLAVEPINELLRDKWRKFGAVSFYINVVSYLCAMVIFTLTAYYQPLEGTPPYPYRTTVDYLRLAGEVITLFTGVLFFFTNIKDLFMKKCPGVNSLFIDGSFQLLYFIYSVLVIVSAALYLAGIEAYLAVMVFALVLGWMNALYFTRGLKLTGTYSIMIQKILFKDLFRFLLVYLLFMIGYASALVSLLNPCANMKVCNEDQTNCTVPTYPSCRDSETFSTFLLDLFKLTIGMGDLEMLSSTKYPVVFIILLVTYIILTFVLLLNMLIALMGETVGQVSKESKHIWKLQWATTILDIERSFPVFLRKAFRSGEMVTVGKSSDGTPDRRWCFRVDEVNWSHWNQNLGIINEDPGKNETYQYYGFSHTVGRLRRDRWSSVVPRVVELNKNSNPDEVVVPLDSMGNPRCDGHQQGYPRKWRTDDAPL
The assay can be described thus: FLIPR assay for hTRPV4 expressed in BHK cells: inhibition of Agonist Compound-induced calcium signal. Type of assay: cell-based. As to conditions: hTRPV4 in BHK/AC9 cells, FLIPR calcium signal, agonist at EC80; reported as range class; read-out: IC50. The procedure:
FLIPR Assay for hTRPV4 Expressed in BHK Cells:
TRPV4 channel activation results in an influx of divalent and monovalent cations including calcium. The resulting changes in intracellular calcium were monitored using a calcium specific fluorescent dye Fluo-4 (MDS Analytical Technologies). BHK/AC9 cells transduced with BacMam virus expressing the human TRPV4 gene at a MOI of 78 were plated in a 384 well poly-D lysine coated plate (15,000 cells/well in 50 μL culture medium containing DMEM/F12 with 15 mM HEPES, 10% FBS, 1% Penicillin-Streptomycin and 1% L-glutamine). Cells were incubated for 24 hours at 37° C. and 5% CO2. Culture medium was then aspirated using a Tecan plate-washer and replaced with 20 μL/well of dye loading buffer: HBSS, 500 μM Brilliant Black (MDS Analytical Technologies), and 2 μM Fluo-4 AM. Dye loaded plates were then incubated in the dark at room temperature for 1-1.5 hours.
What is called IC50 is the concentration that gives 50% inhibition. Consider `N#Cc1cc(C(F)(F)F)ccc1S(=O)(=O)N1C[C@H](Oc2cnc(C(F)(F)F)nc2)[C@](O)(CO)C1` [Example 55, 2-(((3R,4S)-3-hydroxy-3-(hydroxymethyl)-4-((2-(trifluoromethyl)pyrimidin-5-yl)oxy)pyrrolidin-1-yl)sulfonyl)-5-(trifluoromethyl)benzonitrile], for which the half-maximal inhibitory concentration (IC50) is 0.01 to 0.1 µM.
Next, `N#Cc1ccccc1S(=O)(=O)N1C[C@H](Oc2ccc(C(F)(F)F)cc2)[C@](O)(CO)C1` [Example 56, 2-(((3R,4S)-3-hydroxy-3-(hydroxymethyl)-4-(4-(trifluoromethyl)phenoxy)pyrrolidin-1-yl)sulfonyl)benzonitrile]: 0.01 to 0.1 µM; `N#Cc1ccc(O[C@H]2CN(S(=O)(=O)c3ccc(Cl)cn3)C[C@@]2(O)CO)c2ccccc12` [Example 57, 4-(((3S,4R)-1-((5-chloropyridin-2-yl)sulfonyl)-4-hydroxy-4-(hydroxymethyl)pyrrolidin-3-yl)oxy)-1-naphthonitrile]: 0.01 to 0.1 µM.
On to `N#Cc1ccc(O[C@H]2CN(S(=O)(=O)c3ccc(Cl)cn3)C[C@@]2(O)CO)cc1F` [Example 58, 4-(((3S,4R)-1-((5-chloropyridin-2-yl)sulfonyl)-4-hydroxy-4-(hydroxymethyl)pyrrolidin-3-yl)oxy)-2-fluorobenzonitrile], for which the IC50 was in the range of 0.01 to 0.1 µM.
Next, `N#Cc1ccc(O[C@H]2CN(S(=O)(=O)c3ccc(Cl)c4nonc34)C[C@@]2(O)CO)cc1F` [Example 59, 4-(((3S,4R)-1-((7-chlorobenzo[c][1,2,5]oxadiazol-4-yl)sulfonyl)-4-hydroxy-4-(hydroxymethyl)pyrrolidin-3-yl)oxy)-2-fluorobenzonitrile]: 0.01 to 0.1 µM; `N#Cc1ccc(O[C@H]2CN(S(=O)(=O)c3ccccc3C#N)C[C@@]2(O)CO)cc1F` [Example 61, 4-(((3S,4R)-1-((2-cyanophenyl)sulfonyl)-4-hydroxy-4-(hydroxymethyl)pyrrolidin-3-yl)oxy)-2-fluorobenzonitrile]: 0.0001 to 0.01 µM.
Next, `N#Cc1ccc(O[C@H]2CN(S(=O)(=O)c3cccnc3C#N)C[C@@]2(O)CO)cc1F` [Example 62, 3-(((3R,4S)-4-(4-cyano-3-fluorophenoxy)-3-hydroxy-3-(hydroxymethyl)pyrrolidin-1-yl)sulfonyl)picolinonitrile]: 0.0001 to 0.01 µM.
Next, `N#Cc1ccc(O[C@H]2CN(S(=O)(=O)c3ccc(C(F)(F)F)cc3Cl)C[C@@]2(O)CO)cc1F` [Example 63, 4-(((3S,4R)-1-((2-chloro-4-(trifluoromethyl)phenyl)sulfonyl)-4-hydroxy-4-(hydroxymethyl)pyrrolidin-3-yl)oxy)-2-fluorobenzonitrile]: 0.0001 to 0.01 µM; `COc1ccc(S(=O)(=O)N2C[C@H](Oc3ccc(C#N)c(F)c3)[C@](O)(CO)C2)c(Br)c1` [Example 64, 4-(((3S,4R)-1-((2-bromo-4-methoxyphenyl)sulfonyl)-4-hydroxy-4-(hydroxymethyl)pyrrolidin-3-yl)oxy)-2-fluorobenzonitrile]: 0.01 to 0.1 µM.
`N#Cc1ccc(O[C@H]2CN(S(=O)(=O)c3ccc(OC(F)(F)F)cc3Br)C[C@@]2(O)CO)cc1F` [Example 65, 4-(((3S,4R)-1-((2-bromo-4-(trifluoromethoxy)phenyl)sulfonyl)-4-hydroxy-4-(hydroxymethyl)pyrrolidin-3-yl)oxy)-2-fluorobenzonitrile]: the IC50 fell in the range of 0.0001 to 0.01 µM.
As to `N#Cc1ccc(O[C@H]2CN(S(=O)(=O)c3ccc(OC(F)(F)F)cc3Cl)C[C@@]2(O)CO)cc1F` [Example 66, 4-(((3S,4R)-1-((2-chloro-4-(trifluoromethoxy)phenyl)sulfonyl)-4-hydroxy-4-(hydroxymethyl)pyrrolidin-3-yl)oxy)-2-fluorobenzonitrile], the half-inhibitory concentration (IC50) was 0.01 to 0.1 µM.
Next, `N#Cc1ccc(O[C@H]2CN(S(=O)(=O)c3ccc(Br)cc3C#N)C[C@@]2(O)CO)cc1F` [Example 67, 4-(((3S,4R)-1-((4-bromo-2-cyanophenyl)sulfonyl)-4-hydroxy-4-(hydroxymethyl)pyrrolidin-3-yl)oxy)-2-fluorobenzonitrile]: 0.0001 to 0.01 µM.
The value for `N#Cc1ccc(S(=O)(=O)N2C[C@H](Oc3ccc(C#N)c(F)c3)[C@](O)(CO)C2)c(C(F)(F)F)c1` [Example 68, 4-(((3S,4R)-1-((4-cyano-2-(trifluoromethyl)phenyl)sulfonyl)-4-hydroxy-4-(hydroxymethyl)pyrrolidin-3-yl)oxy)-2-fluorobenzonitrile] was 0.01 to 0.1 µM.
Next, `N#Cc1ccc(O[C@H]2CN(S(=O)(=O)c3ccc(C(F)(F)F)cc3C#N)C[C@@]2(O)CO)cn1` [Example 69, 5-(((3S,4R)-1-((2-cyano-4-(trifluoromethyl)phenyl)sulfonyl)-4-hydroxy-4-(hydroxymethyl)pyrrolidin-3-yl)oxy)picolinonitrile]: 0.01 to 0.1 µM; `N#Cc1ccc(O[C@H]2CN(S(=O)(=O)c3ccc(C(F)(F)F)cc3)C[C@@]2(O)CO)cc1F` [Example 70, 2-fluoro-4-(((3S,4R)-4-hydroxy-4-(hydroxymethyl)-1-((4-(trifluoromethyl)phenyl)sulfonyl)pyrrolidin-3-yl)oxy)benzonitrile]: 0.01 to 0.1 µM.
Turning to `N#Cc1ccc(S(=O)(=O)N2C[C@H](Oc3ccc(C#N)c(F)c3)[C@](O)(CO)C2)cc1` [Example 71, 4-(((3S,4R)-1-((4-cyanophenyl)sulfonyl)-4-hydroxy-4-(hydroxymethyl)pyrrolidin-3-yl)oxy)-2-fluorobenzonitrile], the IC50 was 0.01 to 0.1 µM.
Next, `CC(=O)c1ccc(S(=O)(=O)N2C[C@H](Oc3ccc(C#N)c(F)c3)[C@](O)(CO)C2)c(C#N)c1` [Example 72, 4-(((3S,4R)-1-((4-acetyl-2-cyanophenyl)sulfonyl)-4-hydroxy-4-(hydroxymethyl)pyrrolidin-3-yl)oxy)-2-fluorobenzonitrile]: 0.01 to 0.1 µM; `N#Cc1ccc(O[C@H]2CN(S(=O)(=O)c3ccc(Cl)cc3Cl)C[C@@]2(O)CO)cn1` [Example 73, 5-(((3S,4R)-1-((2,4-dichlorophenyl)sulfonyl)-4-hydroxy-4-(hydroxymethyl)pyrrolidin-3-yl)oxy)picolinonitrile]: 0.01 to 0.1 µM; `N#Cc1ccc(O[C@H]2CN(S(=O)(=O)c3ccc(C(F)(F)F)cc3Cl)C[C@@]2(O)CO)cn1` [Example 74, 5-(((3S,4R)-1-((2-chloro-4-(trifluoromethyl)phenyl)sulfonyl)-4-hydroxy-4-(hydroxymethyl)pyrrolidin-3-yl)oxy)picolinonitrile]: 0.01 to 0.1 µM.
Turning to `Cc1ccc(S(=O)(=O)N2C[C@H](Oc3ccc(C#N)nc3)[C@](O)(CO)C2)c(Cl)c1` [Example 75, 5-(((3S,4R)-1-((2-chloro-4-methylphenyl)sulfonyl)-4-hydroxy-4-(hydroxymethyl)pyrrolidin-3-yl)oxy)picolinonitrile], the IC50 lay in the range of 0.01 to 0.1 µM.
For the compound `N#Cc1ccc(O[C@H]2CN(S(=O)(=O)c3c(Cl)cc(Cl)cc3Cl)C[C@@]2(O)CO)cn1` [Example 76, 5-(((3S,4R)-4-hydroxy-4-(hydroxymethyl)-1-((2,4,6-trichlorophenyl)sulfonyl)pyrrolidin-3yl)oxy)picolinonitrile], the half-inhibitory concentration (IC50) lay within 0.01 to 0.1 µM.
With `N#Cc1ccc(O[C@H]2CN(S(=O)(=O)c3c(Cl)cc(Cl)cc3Cl)C[C@@]2(O)CO)cc1F` [Example 77, 2-fluoro-4-(((3S,4R)-4-hydroxy-4-(hydroxymethyl)-1-((2,4,6-trichlorophenyl)sulfonyl)pyrrolidin-3-yl)oxy)benzonitrile], the IC50 lay in the range of 0.01 to 0.1 µM.
The value for `Cc1ccc(S(=O)(=O)N2C[C@H](Oc3ccc(C#N)c(F)c3)[C@](O)(CO)C2)c(Cl)c1` [Example 78, 4-(((3S,4R)-1-((2-chloro-4-methylphenyl)sulfonyl)-4-hydroxy-4-(hydroxymethyl)pyrrolidin-3-yl)oxy)-2-fluorobenzonitrile] was 0.0001 to 0.01 µM; that for `N#Cc1ccc(S(=O)(=O)N2C[C@H](Oc3ccc(C#N)c(F)c3)[C@](O)(CO)C2)cn1` [Example 79, 5-(((3R,4S)-4-(4-cyano-3-fluorophenoxy)-3-hydroxy-3-(hydroxymethyl)pyrrolidin-1-yl)sulfonyl)picolinonitrile] was 0.01 to 0.1 µM; that for `Cc1cc(C#N)ccc1S(=O)(=O)N1C[C@H](Oc2ccc(C#N)c(F)c2)[C@](O)(CO)C1` [Example 80, 4-(((3S,4R)-1-((4-cyano-2-methylphenyl)sulfonyl)-4-hydroxy-4-(hydroxymethyl)pyrrolidin-3-yl)oxy)-2-fluorobenzonitrile] was 0.0001 to 0.01 µM.
Regarding `Cc1cc(C(F)(F)F)ccc1S(=O)(=O)N1C[C@H](Oc2ccc(C#N)c(F)c2)[C@](O)(CO)C1` [Example 81, 2-fluoro-4-(((3S,4R)-4-hydroxy-4-(hydroxymethyl)-1-((2-methyl-4-(trifluoromethyl)phenyl)sulfonyl)pyrrolidin-3-yl)oxy)benzonitrile], the half-maximal inhibitory concentration (IC50) fell in the range of 0.01 to 0.1 µM.
The value for `N#Cc1ccc(S(=O)(=O)N2C[C@H](Oc3cc(F)c(C#N)cc3F)[C@](O)(CO)C2)cn1` [Example 82, 5-(((3R,4S)-4-(4-cyano-2,5-difluorophenoxy)-3-hydroxy-3-(hydroxymethyl)pyrrolidin-1-yl)sulfonyl)picolinonitrile] was 0.01 to 0.1 µM.
For `Cc1nc(C(F)(F)F)ccc1S(=O)(=O)N1C[C@H](Oc2ccc(C#N)c(F)c2)[C@](O)(CO)C1` [Example 83, 2-fluoro-4-(((3S,4R)-4-hydroxy-4-(hydroxymethyl)-1-((2-methyl-6-(trifluoromethyl)pyridin-3-yl)sulfonyl)pyrrolidin-3-yl)oxy)benzonitrile], the half-maximal inhibitory concentration (IC50) was 0.01 to 0.1 µM.
